Experimental findings from EP2149552A1, “5,6 substituted benzamide derivatives as modulators of EP2 receptors” (Bayer Schering Pharma Aktiengesellschaft, priority 2008, dated 2010) are described below.

Assay [1] concerns the target T1, EP2-Subtyp des humanen PGE2-Rezeptors (Homo sapiens, UniProt P43116).
T1 construct: host or cells: cells in a culture plate
Put plainly: cAMP antagonism test (HTRF cAMP detection, PGE2-stimulated cells). In kind it is cell-based. As to conditions: cAMP Antagonismustest, in presence of agonist PGE2; read-out: Antagonismus [IC50. The text has this:
Die Bindung von PGE2 an den EP2-Subtyp des humanen PGE2-Rezeptors induziert die Aktivierung membranständiger Adenylatzyklasen und führt zur Bildung von cAMP. In Gegenwart des Phosphodiesteraseinhibitors IBMX wird das durch diese Stimulation akkumulierte und mittels Zell-Lyse freigesetzte cAMP in einem kompetitiven Nachweisverfahren eingesetzt. In diesem Test konkurriert das cAMP im Lysat mit cAMP-XL665 um die Bindung eines Eu-Kryptat markierten Anti-cAMP Antikörpers.
Dabei entsteht in Abwesenheit von zellulärem cAMP ein maximales Signal, welches auf der Kopplung dieses Antikörpers an das cAMP-XL665 Molekül beruht. Dadurch entsteht nach Anregung bei 337 nm ein auf FRET (fluorescence resonance energy transfer) basierendes, langanhaltendes Emissionssignal bei 665 nm (und bei […]). Beide Signale werden in einem geeigneten Messgerät zeitlich versetzt, d.h. nach Abklingen der Hintergrundsfluoreszenz gemessen. Jegliche Erhöhung des durch Prostglandin-E2-Gabe bedingten niedrigen FRET-Signals (gemessen als Well-Ratio-Veränderung = Emission665nm/Emission620nm * 10000) zeigt die Wirkung von Antagonisten.
Die in einer Testplatte und 30 % DMSO vorgelegten Substanzlösungen (0.75 µl) wurden in 16 µl einer KRSB+IBMX-Stimulationslösung gelöst (1 X Krebs-Ringer Bicarbonate Buffer; Sigma-Aldrich # K-4002; inklusive 750 µM 3-Isobutyl-1-methylxanthine Sigma-Aldrich # I-7018), anschließend wurden 15 µl davon in eine medienfreie Zellkulturplatte überführt, die kurz zuvor mit KRSB gewaschen worden war.
Nach einer 30-minütigen Vorinkubation bei Raumtemperatur (RT) wurden 5 µl einer 4xPGE2 Lösung (11 nM) zugegeben und in Gegenwart des Agonisten für weitere 60 min bei RT inkubiert (Volumen: ∼ 20 µl), bevor die Reaktion anschließend durch Zugabe von 5 µl Lysispuffer gestoppt und für weitere 20 min bei RT inkubiert wurde (Volumen: ∼ 25 µl). Das Zell-Lysat wurde anschließend in eine Messplatte überführt und entsprechend den Herstellerangaben (cyclic AMP kit Cisbio International # 62AMPPEC) gemessen.
For orientation: In TR-FRET formats the signal depends on donor and acceptor labels being close together.

For assay [2], the target named is T1, EP2-Subtyp des humanen PGE2-Rezeptors. Put plainly: cellular cAMP agonism test (without PGE2). In kind it is cell-based.
The subject of a further assay is Kumulus-Eizell Komplexe. Put plainly: cumulus expansion test in vitro. In kind it is cell-based, Mäusen. As to conditions: competing with the natural agonist PGE2. The text has this: In immaturen weiblichen Mäusen (Stamm : CD1 (ICR) von Charles River) wurde in einem Alter von 14 - 18 Tagen die Follikulogenese durch eine einmalige Gabe (intraperitoneal) von 10 I.E. PMSG (Pregnant Mare Serum Gonadotropine; Sigma G-4877, Lot 68H0909) induziert. 47 - 50 Stunden nach der Injektion wurden die Ovarien entnommen und die Kumulus-Eizell Komplexe entnommen. Der Kumulus Komplex ist in diesem Stadium noch nicht expandiert.
Die Kumulus-Eizell Komplexe wurden nun für 20-24 Stunden mit Prostaglandin E2 (PGE2) (0,3 µM), Vehikel Kontrolle (Ethanol) oder Testsubstanzen inkubiert. Medium: alpha- MEM Medium mit 0,1 mM IBMX, Pyruvate (0,23 mM) Glutamine (2 mM), Pen/Strep 100 IU/ml Pen. und 100 µg/ml Strep.) und HSA (8 mg/ml). Danach wurde die Kumulus Expansion durch die Einteilung in vier Stadien (nach Vanderhyden et al. Dev Biol. 1990 Aug;140(2):307-317) festgestellt. Tabelle 1: Beispiel für die biologische Wirksamkeit der erfindungsgemäßen Verbindungen (gemessen mittels cAMP Antagonismustest): […]

pIC50: −log10 of the molar value.

T1 sequence (P43116 whole entry): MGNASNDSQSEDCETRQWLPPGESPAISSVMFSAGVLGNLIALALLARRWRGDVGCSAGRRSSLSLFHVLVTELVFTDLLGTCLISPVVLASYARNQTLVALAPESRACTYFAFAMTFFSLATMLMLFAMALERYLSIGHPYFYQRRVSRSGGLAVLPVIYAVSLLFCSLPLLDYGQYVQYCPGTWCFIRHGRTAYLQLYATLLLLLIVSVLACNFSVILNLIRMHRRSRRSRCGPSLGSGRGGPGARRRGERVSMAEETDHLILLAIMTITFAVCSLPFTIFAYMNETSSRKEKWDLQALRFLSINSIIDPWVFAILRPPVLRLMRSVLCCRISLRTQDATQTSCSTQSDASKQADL

Regarding `Cc1[nH]c2c(F)cc(Br)cc2c1CCNC(=O)c1cc2cc(F)ccc2[nH]1` [Beispiel 10, 5-Fluor-1H-indol-2-carbonsäure [2-(5-brom-7-fluor-2-methyl-1H-indol-3-yl)-ethyl]-amid], the pIC50 (commonly −log10 of the IC50, conventionally taken in molar units) in assay [1] is 7.09. In addition, the “Wirkung im zellulären Agonismustest” value in assay [2] is “keine Inhibition”. The “Unterdrückung der Kumulus Expansion” value with Kumulus-Eizell Komplexe (5 µM) is given as “ca. 75%”.
In the case of `COc1ccc(C(=O)NCCc2c(C)[nH]c3c(F)cc(Br)c(C)c23)cc1OC` [Beispiel 8, N-[2-(5-Brom-7-fluor-2,4-dimethyl-1H-indol-3-yl)-ethyl]-3,4-dimethoxy-benzamid], in assay [1], the pIC50 is 5.74.
The same measure, in the same setting: next, `Cc1[nH]c2c(F)c(F)ccc2c1CCNC(=O)c1cc2cc(Cl)ccc2[nH]1` [Beispiel 5, 5-Chlor-1H-indol-2-carbonsäure [2-(6,7-difluor-2-methyl-1H-indol-3-yl)-ethyl]-amid]: 7.15.
Same read-out and setting: the same measure for `COc1ccc(C(=O)NCCc2c(C)[nH]c3c(F)cc(F)cc23)cc1OC` [Beispiel 3, N-[2-(5,7-Difluor-2-methyl-1H-indol-3-yl)-ethyl]-3,4-dimethoxy-benzamid]: 6.15.
In the case of `CC(C)Oc1ccc2c(=O)c3cc(C(=O)O)ccc3oc2c1` [AH 6809, reference compound], in the assay with Kumulus-Eizell Komplexe (100 - 200 µM), the “Unterdrückung der Kumulus Expansion” value is listed as “ca. 30%”.
`Cc1[nH]c2c(F)c(Cl)ccc2c1CCNC(=O)c1cc2cc(F)ccc2[nH]1` [Beispiel 6, 5-Fluor-1H-indol-2-carbonsäure [2-(6-chlor-7-fluor-2-methyl-1H-indol-3-yl)-ethyl]-amid]: the pIC50 in assay [1] is 6.70.
